From patent US6953786B2, “Compositions comprising plant-derived polyphenolic compounds and inhibitors of reactive oxygen species and methods of using thereof” (The Regents of the University of California, priority 2002, dated 2005)

What was measured:
[1] = test system: BSp73AS and Mia PACA-2 cells; test: Caspase-3 activity and annexin staining with MG-132 (FIG. 14C); format: cell-based; settings: polyphenols 100 μM, MG-132 20 μM
Mia PACA-2 = test: TUNEL apoptosis assay in primary tumors and normal tissues; format: in vivo, nude mouse
Method: In order to determine the mechanism of the suppressive effects of quercetin on the growth of the pancreatic cancer, apoptosis in the primary tumors using the TUNEL assay was conducted. See Gukovskaya AS, et al. (1997) Clin Invest 100:1853-1862; Gukovskaya AS, et al. (1996) Gastroenterology 110:875-884; and Sandoval D, et al. (1996) Gastroenterology 111:1081-1091, which are herein incorporated by reference. Specifically, 3 μm tissue section were deparaffinized and rehydrated through a graded series of ethanol and redistilled water. Tissue sections were refixed in 4% paraformaldehyde for 15 minutes at room temperature and then incubated with proteinase K (20 μg/ml in 10 mM Tirs/HCL, pH 7.4-8.0) for 15 minutes at 37° C. DNA breaks were then labeled with terminal deoxytransferase (TdT) and biotinylated deoxyUTP. Staining without TdT enzyme or the biotinylated substrate were used as negative controls. For positive controls, slides were treated with DNase I. Measurements were made by light microscpy observations and values calculated as the percentage of cells positively stained as a percentage of the total number of cells.

caspase-3 [2] = test: Caspase-3 processing (Western blot); format: cell-based, human
Method: (§1) In order to determine the effect polyphenolic compounds have on caspase-3 activity, the following assay was conducted. BSp73AS cells were culture in the absence of serum or growth factors for 24 hours in 0, 10, 20, and 50 μM of trans-resveratrol and Mia PACA-2 -cells were cultured for 72 hours in the presences of 0, 10, 20, and 50 μM of tran-resveratrol. Cell lysates were then prepared and 50 μg protein aliquots were loaded per lane and blotted with rabbit polyclonal antibody against caspase-3 (Santa Cruz Biotechnology, Santa Cruz, Calif.). The experiment was repeated 3 times with similar results.

caspase-3 [3] = test: Caspase-3 processing (Western blot); format: cell-based, rat; settings: BSp73AS
Method: as §1

Compound: O=c1c(-c2ccc(O)cc2)coc2cc(O)cc(O)c12 [genistein]
- apoptosis (annexin staining) [1]: causes significant apoptosis

Compound: O=c1c(O)c(-c2ccc(O)c(O)c2)oc2cc(O)cc(O)c12 [quercetin]
- Percentage of apoptosis (Mia PACA-2; TUNEL in primary tumors of quercetin-treated nude mice, means ± SE, n=8): 7.10 ± 1.00 %
- apoptosis in normal tissues detected by the TUNEL assay (Mia PACA-2; quercetin-treated nude mice, data not shown): no increase in apoptosis
- lowest concentration with effect on caspase-3 conversion (caspase-3 [2]; Mia PACA-2, 72 hours (FIG. 7A)): 20 µM
- conversion of caspase-3 from inactive to active form (caspase-3 [2]; Mia PACA-2, 72 hours, 0-50 μM (FIG. 7A)): convert caspase-3 from its inactive form (32 kDa doublet) to its active form (17 kDa)

Compound: Oc1ccc(/C=C/c2cc(O)cc(O)c2)cc1 [trans-resveratrol]
- lowest concentration with effect on caspase-3 conversion (caspase-3 [3]; 24 hours (FIG. 6A)): 20 µM
- conversion of caspase-3 from inactive to active form (caspase-3 [3]; 24 hours, no serum, 0-50 μM (FIG. 6A)): convert caspase-3 from its inactive form (32 kDa doublet) to its active form (17 kDa)
